In patent US11208404B2 (PERENNA PHARMACEUTICALS, INC., priority 2017, dated 2021):
Read-outs that look alike come from different tables or passages of the source.

Target: ALCAT1 (Homo sapiens (Human), UniProt Q6UWP7)
Assay: In vitro acyltransferase assay for ALCAT1 inhibitors
Type: biochemical
Settings: for inhibition at 1 µM / % inh @ 1 μM: 1 μM compound; for inhibition at 1 µM / inhibition at 10 µM / % inh @ 1 μM: in vitro enzymatic assay; for inhibition at 10 µM: 10 μM compound; for IC50: ALCAT1 enzyme activity
From the text: The human ALCAT1 protein were expressed in Spodoptera frugiperda (Sf9) insect cells by using a Bac-to-Bac baculovirus expression system (Invitrogen) according to the manufacturer's instruction. High-titer recombinant baculovirus expressing the human ALCAT1 protein was generated by several rounds of viral amplification. The Sf9 cells were typically infected with recombinant baculovirus for 3 days, harvested in ice-cold phosphate-buffered saline (PBS), and homogenized in 20 mm NaCl by going through French press. The total cell lysates were centrifuged at 10,000×g for 1 hours at 4° C. to eliminate the nucleus fraction, followed by ultracentrifugation at 100,000×g to pallet the membrane fraction. The membrane fraction was resuspended in enzymatic buffer that contain 10% glycerol, quantified for protein concentration, aliquoted, and stored at −80° C.
ALCAT1 enzymatic activity was determined by measuring the conversion of monolysocardiolipin (MLCL) to cardiolipin or lysophosphatidylglycerol (LPG) to phosphatidylglycerol (PG) in an enzymatic reaction mixture that contained 50 mm Tris/HCl, pH 7.0, 100 μm lysophospholipids, 25 μm [^14C]acyl-CoA (50 mCi/mmol, American Radiolabeled Chemicals, Inc), and membrane fraction (0.5-2.5 μg) in a total volume of 200 μl. The reaction was incubated at room temperature for 30 min. The lipids were extracted will chloroform, dried, and separated by thin layer chromatography (TLC) with chloroform:hexane:methanol:acetic acid (50:30:10:5, v/v) or chloroform:methanol:water (65:25:4, v/v). After separation, TLC plates were exposed to a Phosphorlmager screen to visualize the radiolabeled products with a Molecular Dynamics Typhoon Scanner (Sunnyvale, Calif.). In some experiments, NBD-CoA was used at 100 μM to replace the [^14C]acyl-CoA in the enzymatic reaction. All quantitative data were expressed as mean±S.E. Statistical analyses for differences between two groups were carried out using a Student's t test.
Compound inhibitors for ALCAT1 enzyme were analyzed by an in vitro enzymatic assay as detailed above. Compound inhibitors were added to the enzymatic mixture at 1-20 μM concentrations before the start of the acyltransferase reaction.
Where multiple measurements were taken this is indicated by a “/” between multiple values.
IC50 values for each compound were analyzed in triplicates, and calculated by GraphPad software.

[1] = triplicates, GraphPad, read-out: IC50

Chain of ALCAT1 (Q6UWP7 whole entry): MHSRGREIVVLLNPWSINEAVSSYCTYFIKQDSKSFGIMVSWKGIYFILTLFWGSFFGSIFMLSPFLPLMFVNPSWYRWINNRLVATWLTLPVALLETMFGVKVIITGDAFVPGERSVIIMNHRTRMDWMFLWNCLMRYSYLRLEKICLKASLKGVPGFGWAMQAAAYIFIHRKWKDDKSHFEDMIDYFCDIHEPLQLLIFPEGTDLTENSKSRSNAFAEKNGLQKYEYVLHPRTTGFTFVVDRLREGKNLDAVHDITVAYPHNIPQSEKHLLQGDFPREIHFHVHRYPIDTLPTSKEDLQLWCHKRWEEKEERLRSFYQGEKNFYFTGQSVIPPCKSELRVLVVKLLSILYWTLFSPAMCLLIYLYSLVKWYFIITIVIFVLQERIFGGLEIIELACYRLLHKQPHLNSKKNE

`COC(=O)c1ccc(OC)c(C(=O)Nc2cccc(-c3nnc(-c4ccco4)o3)c2)c1` [Compound 115] was tested, and the inhibition at 1 µM was 51% and the inhibition at 10 µM was 53%.

With `CCCOc1ccc(Br)cc1C(=O)Nc1cccc(-c2nnc(-c3ccco3)o2)c1` [Compound 119, 5-Bromo-N-(3-(5-(furan-2-yl)-1,3,4-oxadiazol-2-yl)phenyl)-2-propoxybenzamide] the inhibition at 1 µM was 92%, the inhibition at 10 µM was 95% and the IC50 [1] was 90 nM.

`COc1ccc(Br)cc1C(=O)Nc1cccc(-c2nnc(-c3ccco3)o2)c1` [Compound 120, 5-Bromo-N-(3-(5-(furan-2-yl)-1,3,4-oxadiazol-2-yl)phenyl)-2-methoxybenzamide] gave an inhibition at 1 µM of 94%, an inhibition at 10 µM of 100% and an IC50 [1] of 38 nM.

`CCOc1ccc(Cl)cc1C(=O)Nc1cccc(-c2nnc(-c3ccco3)o2)c1` [Compound 122, 5-Chloro-2-ethoxy-N-(3-(5-(furan-2-yl)-1,3,4-oxadiazol-2-yl)phenyl)benzamide] showed an inhibition at 1 µM of 100%, an inhibition at 10 µM of 100% and an IC50 [1] of 39 nM.

In the case of `CCCOc1ccc(Cl)cc1C(=O)Nc1cccc(-c2nnc(-c3ccco3)o2)c1` [Compound 123, 5-Chloro-N-(3-(5-(furan-2-yl)-1,3,4-oxadiazol-2-yl)phenyl)-2-propoxybenzamide], the inhibition at 1 µM is reported as 90%, the inhibition at 10 µM is reported as 100% and the IC50 [1] is reported as 87 nM.

In the case of `COc1ccc(Cl)cc1C(=O)Nc1cccc(-c2nnc(-c3ccco3)o2)c1` [Compound 124, 5-Chloro-N-(3-(5-(furan-2-yl)-1,3,4-oxadiazol-2-yl)phenyl)-2-methoxybenzamide], the inhibition at 1 µM is reported as 92%, the inhibition at 10 µM is reported as 100% and the IC50 [1] is reported as 62 nM.

`CCOc1ccc(F)cc1C(=O)Nc1cccc(-c2nnc(-c3ccco3)o2)c1` [Compound 125, 2-Ethoxy-5-fluoro-N-(3-(5-(furan-2-yl)-1,3,4-oxadiazol-2-yl)phenyl)benzamide] gave an inhibition at 1 µM of 92%, an inhibition at 10 µM of 97% and an IC50 [1] of 67 nM.

For `CCCOc1ccc(F)cc1C(=O)Nc1cccc(-c2nnc(-c3ccco3)o2)c1` [Compound 126], the inhibition at 1 µM was 83%, the inhibition at 10 µM was 100% and the IC50 [1] was 110 nM.

`COc1ccc(F)cc1C(=O)Nc1cccc(-c2nnc(-c3ccco3)o2)c1` [Compound 127] was tested, and the inhibition at 1 µM was 85%, the inhibition at 10 µM was 100% and the IC50 [1] was 210 nM.

Work on `COc1ccccc1C(=O)Nc1cc(-c2nnc(-c3ccco3)o2)ccc1F` [Compound 128, N-(2-Fluoro-5-(5-(furan-2-yl)-1,3,4-oxadiazol-2-yl)phenyl)-2-methoxybenzamide] yielded an inhibition at 1 µM of 100%, an inhibition at 10 µM of 100% and an IC50 (read-out: IC50 values (upper bounds)) of under 100 nM. The IC50 [1] was 29 nM.

With `O=C(Nc1cc(F)cc(-c2nnc(-c3ccco3)o2)c1)c1ccccc1F` [Compound 130] the “% inh @ 1 μM” value was 57% and the inhibition at 1 µM was 50%.

`Cc1cc(NC(=O)c2ccccc2F)cc(-c2nnc(-c3ccco3)o2)c1` [Compound 132] was tested, and the “% inh @ 1 μM” value was 39% and the inhibition at 1 µM was 26%.

In the case of `COc1cc(NC(=O)c2ccccc2F)cc(-c2nnc(-c3ccco3)o2)c1` [Compound 133], the “% inh @ 1 μM” value is reported as 17% and the inhibition at 1 µM is reported as 19%.

With `O=C(Nc1cccc(-c2nnc(-c3ccco3)s2)c1)c1ccccc1F` [Compound 135] the “% inh @ 1 μM” value was 62% and the inhibition at 1 µM was 56%.

`COc1ccc(NC(=O)c2ccccc2F)cc1-c1nnc(-c2ccco2)o1` [Compound 136] was tested, and the “% inh @ 1 μM” value was 23% and the inhibition at 1 µM was 28%.

In the case of `O=C(Nc1cccc(-c2nnc(-c3cnco3)o2)c1)c1ccccc1F` [Compound 137], the “% inh @ 1 μM” value is reported as 48% and the inhibition at 1 µM is reported as 37%.

For `O=C(Nc1cc(-c2nnc(-c3ccno3)o2)ccc1F)c1ccccc1F` [Compound 139], the “% inh @ 1 μM” value was 48% and the inhibition at 1 µM was 50%.

With `COc1c(NC(=O)c2ccccc2F)cccc1-c1nnc(-c2ccco2)o1` [Compound 140] the inhibition at 1 µM was 29%.

`O=C(Nc1cccc(-c2nnc(-c3ccco3)o2)c1)c1cc(Br)ccc1I` [Compound 141] gave an inhibition at 1 µM of 65% and an inhibition at 10 µM of 67%.

In the case of `O=C(Nc1cccc(-c2nnc(-c3ccco3)o2)c1)c1c(F)cccc1F` [Compound 143], the inhibition at 1 µM is reported as 13% and the inhibition at 10 µM is reported as 17%.

`O=C(Nc1cccc(-c2nnc(-c3ccco3)o2)c1)c1cc(F)c(F)cc1F` [Compound 144] was tested, and the inhibition at 1 µM was 73%, the inhibition at 10 µM was 92% and the IC50 [1] was 130 nM.

Molecule `O=C(Nc1cccc(-c2nnc(-c3ccco3)o2)c1)c1c(F)cccc1Cl` [Compound 145] has an inhibition at 1 µM of 9% and an inhibition at 10 µM of 38%.

`O=C(Nc1cccc(-c2nnc(-c3ccco3)o2)c1)c1cccc(Cl)c1Cl` [Compound 150] gave an inhibition at 1 µM of 72%, an inhibition at 10 µM of 92% and an IC50 [1] of 410 nM.

Work on `COc1cccc(C(=O)Nc2cccc(-c3nnc(-c4ccco4)o3)c2)c1OC` [Compound 169] yielded an inhibition at 1 µM of 74%, an inhibition at 10 µM of 93% and an IC50 [1] of 470 nM.

With `COc1cccc(OC)c1C(=O)Nc1cccc(-c2nnc(-c3ccco3)o2)c1` [Compound 170] the inhibition at 1 µM was 20% and the inhibition at 10 µM was 27%.

With `COc1ccc(OC)c(C(=O)Nc2cccc(-c3nnc(-c4ccco4)o3)c2)c1` [Compound 171] the inhibition at 1 µM was 79%, the inhibition at 10 µM was 100% and the IC50 [1] was 350 nM.

`CC(=O)Nc1ccccc1C(=O)Nc1cccc(-c2nnc(-c3ccco3)o2)c1` [Compound 172] showed an inhibition at 1 µM of 6% and an inhibition at 10 µM of 26%.

`CCOc1ccccc1C(=O)Nc1cccc(-c2nnc(-c3ccco3)o2)c1` [Compound 174] showed an inhibition at 1 µM of 96%, an inhibition at 10 µM of 100% and an IC50 [1] of 110 nM.

`CCCOc1ccccc1C(=O)Nc1cccc(-c2nnc(-c3ccco3)o2)c1` [Compound 175] gave an inhibition at 1 µM of 90%, an inhibition at 10 µM of 100% and an IC50 [1] of 150 nM.

In the case of `Cc1ccc(F)c(C(=O)Nc2cccc(-c3nnc(-c4ccco4)o3)c2)c1` [Compound 176], the inhibition at 1 µM is reported as 73%, the inhibition at 10 µM is reported as 100% and the IC50 [1] is reported as 220 nM.

With `O=C(Nc1cccc(-c2nnc(-c3ccco3)o2)c1)c1ccc2c(c1)OCO2` [Compound 177] the inhibition at 1 µM was 3% and the inhibition at 10 µM was 1%.

Work on `O=C(Nc1cccc(-c2nnc(-c3ccco3)o2)c1)c1cccc2c1OCO2` [Compound 178] yielded an inhibition at 1 µM of 27%.

For `COc1cccc(F)c1C(=O)Nc1cccc(-c2nnc(-c3ccco3)o2)c1` [Compound 179], the inhibition at 1 µM was 17% and the inhibition at 10 µM was 41%.

`CSc1ccccc1C(=O)Nc1cccc(-c2nnc(-c3ccco3)o2)c1` [Compound 181] gave an inhibition at 1 µM of 34% and an inhibition at 10 µM of 68%.

Molecule `COc1c(C)cccc1C(=O)Nc1cccc(-c2nnc(-c3ccco3)o2)c1` [Compound 182] has an inhibition at 1 µM of 33%.

In the case of `O=C(Nc1cccc(-c2nnc(-c3ccco3)o2)c1)c1cccc(Cl)c1F` [Compound 186], the inhibition at 1 µM is reported as 92%, the inhibition at 10 µM is reported as 100% and the IC50 [1] is reported as 390 nM.

Molecule `O=C(Nc1cccc(-c2nnc(-c3ccco3)o2)c1)c1cc(Br)ccc1F` [Compound 188] has an inhibition at 1 µM of 93%, an inhibition at 10 µM of 100% and an IC50 [1] of 640 nM.

`O=C(Nc1cccc(-c2nnc(-c3ccco3)o2)c1)c1cc(Cl)ccc1F` [Compound 189] gave an inhibition at 1 µM of 92%, an inhibition at 10 µM of 100% and an IC50 [1] of 320 nM.

`Cc1cccc(C(=O)Nc2cccc(-c3nnc(-c4ccco4)o3)c2)c1F` [Compound 190] showed an inhibition at 1 µM of 80%, an inhibition at 10 µM of 100% and an IC50 [1] of 290 nM.

In the case of `O=C(Nc1cccc(-c2nnc(-c3ccco3)o2)c1)c1cccc(Br)c1F` [Compound 191], the inhibition at 1 µM is reported as 82%, the inhibition at 10 µM is reported as 100% and the IC50 [1] is reported as 330 nM.

For `COc1c(Br)cccc1C(=O)Nc1cccc(-c2nnc(-c3ccco3)o2)c1` [Compound 192, 3-Bromo-N-(3-(5-(furan-2-yl)-1,3,4-oxadiazol-2-yl)phenyl)-2-methoxybenzamide], the “% inh @ 1 μM” value was 93%, the inhibition at 1 µM was 89% and the IC50 [1] was 92 nM.

`COc1c(Cl)cccc1C(=O)Nc1cccc(-c2nnc(-c3ccco3)o2)c1` [Compound 193, 3-Chloro-N-(3-(5-(furan-2-yl)-1,3,4-oxadiazol-2-yl)phenyl)-2-methoxybenzamide] was tested, and the inhibition at 1 µM was 92%, the inhibition at 10 µM was 90% and the IC50 [1] was 67 nM.

With `O=C(Nc1cccc(-c2nnc(-c3ccco3)o2)c1)c1cc(F)ccc1F` [Compound 195] the inhibition at 1 µM was 70%, the inhibition at 10 µM was 88% and the IC50 [1] was 360 nM.

`O=C(Nc1cccc(-c2nnc(-c3ccco3)o2)c1)c1cccc(F)c1F` [Compound 196] was tested, and the inhibition at 1 µM was 68%, the inhibition at 10 µM was 97% and the IC50 [1] was 340 nM.
